Data taken from patent US10308671B2, “Water-soluble derivatives of 3,5-diphenyl-diazole compounds” (Max-Planck-Gesellschaft zur Förderung, priority 2015, dated 2019).
≈ marks a conversion by molar mass, not a printed value. Where two headings read alike, the source gives them in different places.

Columns and labels:
[1] = Solubility in water; assay type: physicochemical; settings: for solubility: water
[2] = Water-solubility test (visual inspection); assay type: physicochemical
Protocol: The solubility of each compound in the water was evaluated by following protocol. Deionized water (1 ml) was added into glass tube containing 10 mg of compound. After shaking for 10 minutes the sample was visually inspected and formation of solution or suspension was documented.

[3] = Pharmacokinetics in rats after single oral dose: anle138b in PEG/Cremophor (Phase 1) vs sery433 in aqueous buffer (Phase 2); assay type: in vivo, male Sprague Dawley rats; settings: anle138b combined with excipients based on PEG/cremophor
Protocol: In the experiment, a single oral dose of anle138b in PEG/Cremophor (“Phase 1”) and sery433 in aqueous solution (“Phase 2”) at a nominal dose of 10 mg/kg were administered to male Sprague Dawley Rats. The experiments were conducted with three rats which are identified as “1M”, “2M” and “3M”.
This study was designed to assess the pharmacokinetics of anle138b and sery433 in male Sprague Dawley rats following single oral administration of anle138b (Phase 1) and sery433 (Phase 2). During Phase 1 and Phase 2 animals received each test compound, appropriately formulated, on one of two separate dose occasions in a cross over design. The dose level was 10 mg/kg for both compounds. The amount of sery433 was not corrected to the amount of anle138b which is present in the prodrug, so that due to the higher molecular weight of sery433 actually a lower amount of active agent was administered.
Phase 1: three naïve male CD rats were dosed orally with anle138b at a target dose level of 10 mg/kg.
Phase 2: one week later (wash out period), sery433 at a target dose of 10 mg/kg was administered orally to the same animals.
During each phase an individual serial plasma profile was drawn from each animal over a period of 24 hours after dosing.
The vehicle was prepared by weighing Cremophor RH40 (45% of final volume); PEG400 (35% of final volume) and Capryol 90 (20% of final volume). […]

Row | SMILES | solubility (in words) [1] | Result of solubility test ([2]; 10 mg compound in 1 ml deionized water, shaking 10 minutes, visual inspection) | solubility at 10 min ([2]; deionized water, water, thermodynamic from solid, read-out: amount soluble in water) | solubility ([1]; read-out: solubility in water) | solubility ([1]; restates 0.2 μM, read-out: water-solubility) | anle138b exposure relative to the exposure reached by administration of sery433 [3]
1 | CN(C)c1ccc(-c2cc(-c3cccc(Br)c3)[nH]n2)cc1 [Anle253b, 5-(3-Bromophenyl)-3-(4-dimethylaminophenyl)-1H-pyrazole] | even less soluble than anle138b | – | – | – | – | –
2 | Brc1cccc(-c2cc(-c3ccc4c(c3)OCO4)n[nH]2)c1 [anle138b, 5-(3-Bromophenyl)-3-(3,4-methylenedioxyphenyl)-1H-pyrazole] | – | insoluble | 0.0686 µg/mL (≈ 0.2 µM) | 0.2 µM | 0.07 µg/mL | 25%
